According to US11999727B2 (Tango Therapeutics, Inc., priority 2020, dated 2024):
pIC50: −log10 of the molar value.

Legend:
[1] = target: T1, PRMT5 (Homo sapiens, UniProt O14744); assay: PRMT5 biochemical IC50 assay with SAM as cofactor; details: PRMT5, SAM as cofactor; read-out: SAM IC50
T1 construct: purchased Viva (custom protein)

[2] = target: T1, PRMT5; assay: PRMT5 biochemical IC50 assay with no cofactor; details: PRMT5, no cofactor; read-out: No Cofactor/rel IC50
Description: Table 1 indicates IC50 values (μM) against PRMT5 for exemplary compounds in the presence of SAM as cofactor, with no cofactor, and with MTA as cofactor, respectively (columns 4-6). […] Ki values can be calculated from the IC50 values as described in the Examples section. As detailed in the Examples section, for the assay performed in the presence of SAM, IC50=Ki×1.5 (Ki=IC50/1.5).

[3] = target: T1, PRMT5; assay: PRMT5 biochemical IC50 assay with MTA as cofactor; details: PRMT5, MTA as cofactor; read-out: MTA IC50
[4] = test system: HAP1 MTAP-intact cell line; assay: SDMA in-cell western assay, HAP1 MTAP-intact; format: cell-based; details: Homo sapiens, HAP1, SDMA in-cell western, HAP1 MTAP-intact; read-out: MTAP HAP1 intact IC50
In short: (§1)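 IC50 values come from SDMA signal quantified by in-cell western in two HAP1 lines, one with native MTAP levels and one lacking MTAP.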

[5] = test system: HAP1 MTAP-deleted cell line; assay: SDMA in-cell western assay, HAP1 MTAP-deleted; format: cell-based; details: for pIC50: Homo sapiens, HAP1, SDMA in-cell western, HAP1 MTAP-deleted; for MTAP intact/deleted ratio: IC50 ratio HAP1 MTAP-intact / HAP1 MTAP-deleted, SDMA in-cell western
In short: as §1

[6] = test system: HAP1 MTAP-deleted cell line; assay: Viability assay, MTAP-deleted cell line; format: cell-based; details: Homo sapiens, read-out: HAP1 MTAP deleted viability
Description: Table 1 additionally indicates IC50 values in a viability assay for the MTAP-deleted cell line (column 10), indicating the effect of treatment with compound on cell survival.

[7] = read-out: HAP 1 MTAP deleted IC50
[8] = HAP1, viability IC50, MTAP-deleted cell line

T1 sequence (O14744 whole entry): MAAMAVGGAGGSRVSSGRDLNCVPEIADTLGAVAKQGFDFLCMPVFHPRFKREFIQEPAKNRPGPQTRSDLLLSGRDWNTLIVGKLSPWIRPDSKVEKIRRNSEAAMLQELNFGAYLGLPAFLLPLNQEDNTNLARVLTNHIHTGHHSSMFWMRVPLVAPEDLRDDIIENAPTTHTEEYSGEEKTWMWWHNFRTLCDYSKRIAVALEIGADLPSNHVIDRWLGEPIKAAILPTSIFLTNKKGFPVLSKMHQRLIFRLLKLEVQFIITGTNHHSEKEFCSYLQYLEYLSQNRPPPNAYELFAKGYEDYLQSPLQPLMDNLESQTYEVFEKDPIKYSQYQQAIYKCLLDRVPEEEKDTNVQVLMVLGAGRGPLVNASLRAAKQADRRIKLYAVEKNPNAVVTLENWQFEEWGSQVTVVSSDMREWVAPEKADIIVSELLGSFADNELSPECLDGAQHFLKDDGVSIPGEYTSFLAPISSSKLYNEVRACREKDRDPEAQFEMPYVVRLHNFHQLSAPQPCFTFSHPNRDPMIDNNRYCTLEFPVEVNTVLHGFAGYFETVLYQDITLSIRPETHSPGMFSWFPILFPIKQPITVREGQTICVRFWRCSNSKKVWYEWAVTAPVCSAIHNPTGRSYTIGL
T1 sequence (Q9BQA1 whole entry partner): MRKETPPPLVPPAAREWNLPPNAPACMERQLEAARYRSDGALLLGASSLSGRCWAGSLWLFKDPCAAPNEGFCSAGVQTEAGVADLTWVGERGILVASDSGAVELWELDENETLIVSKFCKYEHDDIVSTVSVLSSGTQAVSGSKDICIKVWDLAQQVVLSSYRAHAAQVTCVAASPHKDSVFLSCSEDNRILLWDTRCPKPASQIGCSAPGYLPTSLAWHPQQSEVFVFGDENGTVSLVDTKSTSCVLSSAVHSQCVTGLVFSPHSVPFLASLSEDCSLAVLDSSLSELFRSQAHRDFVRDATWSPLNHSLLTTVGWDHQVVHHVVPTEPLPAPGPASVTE

| Compound | pIC50 [1] | pIC50 [2] | pIC50 [3] | pIC50 [4] | pIC50 ([5]; read-out: HAP1 MTAP deleted IC50) | MTAP intact/deleted ratio [5] | pIC50 ([6]; HAP1, viability assay, MTAP-deleted cell line) | pIC50 [5, 7] | pIC50 [6, 8] |
| --- | --- | --- | --- | --- | --- | --- | --- | --- | --- |
| CC(=O)Nc1ccc([C@@H]2CC[C@@H](C)CN2C(=O)C(=O)Nc2cnc(N)c(C)c2)cc1 (single isomer, unassigned) [Compound 527] | 6.30 to 7.30 | > 7.30 | > 7.30 | 6.00 to 7.00 | > 7.00 | A (an IC50 ratio greater than or equal to 10 fold) | > 6.00 |  |  |
| Cc1cc(NC(=O)C(=O)N2C[C@@H](C)CC[C@@H]2c2ccc(NCC(F)(F)F)cc2)cnc1N (single isomer, unassigned) [Compound 528] | < 6.30 | < 6.30 | < 6.30 | < 6.00 |  | B (an IC50 ratio greater than or equal to 3 fold but lower than 10 fold) |  | < 6.00 | 5.00 to 6.00 |
| C[C@H]1CC[C@H]([C@@H]2CCC[C@H](O)C2)N(C(=O)C(=O)Nc2cncc(C(N)=O)c2)C1 (single isomer, unassigned) [Compound 529] | < 6.30 | < 6.30 | < 6.30 | < 6.00 |  | C (an IC50 ratio of less than 3 fold) |  | < 6.00 | < 5.00 |
| C[C@@H]1CC[C@@H]([C@H]2CCC[C@H](O)C2)N(C(=O)C(=O)Nc2cncc(C(N)=O)c2)C1 (single isomer, unassigned) [Compound 530] | < 6.30 | < 6.30 | < 6.30 | < 6.00 |  | C (an IC50 ratio of less than 3 fold) |  | < 6.00 | < 5.00 |
| C[C@@H]1CC[C@@H]([C@H]2CCC[C@@H](O)C2)N(C(=O)C(=O)Nc2cncc(C(N)=O)c2)C1 (single isomer, unassigned) [Compound 531] | 6.30 to 7.30 | < 6.30 | 6.30 to 7.30 | < 6.00 |  | B (an IC50 ratio greater than or equal to 3 fold but lower than 10 fold) |  | < 6.00 | < 5.00 |
| COc1cc([C@@H]2CC[C@@H](C)CN2C(=O)C(=O)Nc2cncc(C(N)=O)c2)ccn1 (single isomer, unassigned) [Compound 532] | 6.30 to 7.30 | > 7.30 | > 7.30 | < 6.00 |  | A (an IC50 ratio greater than or equal to 10 fold) |  | > 7.00 | > 6.00 |
| COc1cc([C@H]2CC[C@H](C)CN2C(=O)C(=O)Nc2cncc(C(N)=O)c2)ccn1 (single isomer, unassigned) [Compound 533] | < 6.30 | < 6.30 | < 6.30 | < 6.00 |  | C (an IC50 ratio of less than 3 fold) |  | < 6.00 | < 5.00 |
| Cc1cc([C@H]2CC[C@H](C)CN2C(=O)C(=O)Nc2cncc(C(N)=O)c2)ccn1 (single isomer, unassigned) [Compound 534] | 6.30 to 7.30 | 6.30 to 7.30 | > 7.30 | < 6.00 |  | A (an IC50 ratio greater than or equal to 10 fold) |  | 6.00 to 7.00 | 5.00 to 6.00 |
| Cc1cc(NC(=O)C(=O)N2CCCC[C@@H]2c2ccc3[nH]ncc3c2)cnc1N (single isomer, unassigned) [Compound 535] | < 6.30 | < 6.30 | < 6.30 | < 6.00 |  | B (an IC50 ratio greater than or equal to 3 fold but lower than 10 fold) |  | < 6.00 | < 5.00 |
| COc1ncc(NC(=O)C(=O)N2C[C@@H](C)CC[C@@H]2c2cnc3[nH]ncc3c2)cc1C(N)=O (single isomer, unassigned) [Compound 537] | < 6.30 | < 6.30 | < 6.30 | < 6.00 |  | C (an IC50 ratio of less than 3 fold) |  | < 6.00 | < 5.00 |
| COc1cc([C@H]2CC[C@H](C)CN2C(=O)C(=O)Nc2cnc(N)c(C)c2)ccn1 (single isomer, unassigned) [Compound 538] | < 6.30 | < 6.30 | < 6.30 | < 6.00 |  | B (an IC50 ratio greater than or equal to 3 fold but lower than 10 fold) |  | < 6.00 | < 5.00 |
